Columns and labels:
human SIRT3 = molecular target: T1, human SIRT3 (Homo sapiens, UniProt Q9NTG7); assay: Fluorescence polarization assay of SIRT3 activity (Histone H4-based peptide substrate); type: biochemical; settings: inhibition of SIRT3 (Table 7)
T1 construct: The SIRT3 protein used in the assays corresponded to amino acid residues 102-399 of human SIRT3; His-tag (N); made in house; host or cells: E. coli
T1 sequence (Q9NTG7 102-399): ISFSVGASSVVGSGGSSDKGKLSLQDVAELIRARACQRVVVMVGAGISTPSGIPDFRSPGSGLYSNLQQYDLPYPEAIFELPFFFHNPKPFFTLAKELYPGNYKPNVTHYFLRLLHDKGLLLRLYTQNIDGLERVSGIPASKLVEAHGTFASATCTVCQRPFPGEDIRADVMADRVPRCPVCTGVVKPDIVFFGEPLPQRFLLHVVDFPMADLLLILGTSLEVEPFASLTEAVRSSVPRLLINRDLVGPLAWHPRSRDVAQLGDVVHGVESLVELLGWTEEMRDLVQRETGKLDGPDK
Excerpt: A fluorescence polarization assay was used to identify modulators of SIRT3 activity. The same assay may be used to identify modulators of any sirtuin protein. The assay utilizes a peptide substrate based on a fragment of Histone H4, a known sirtuin deacetylation target. The substrate contains a peptide having 14 amino acid residues as follows: Biotin-GASSHSK(Ac)VLK(MR121) (SEQ ID NO: 3) wherein K(Ac) is an acetylated lysine residue. The peptide is labeled with the fluorophore MR121 (excitation 635 nm/emission 680 nm) at the C-terminus and biotin at the N-terminus.
The peptide substrate is exposed to a sirtuin protein in the presence of NAD^+ to allow deacetylation of the substrate and render it sensitive to cleavage by trypsin. Trypsin is then added and the reaction is carried to completion (i.e., the deacetylated substrate is cleaved) releasing the MR121 fragment. Streptavidin is then added to the reaction where it can bind both the uncleaved substrate (i.e., any remaining acetylated substrate) and the non-fluorescent portion of the cleaved peptide substrate (i.e., the biotin containing fragment). The fluorescence polarization signal observed for the full length peptide substrate bound to streptavidin is higher than the fluorescence polarization signal observed for the released MR121C-terminal fragment. Therefore, the fluorescence polarization obtained is inversely proportional to the level of deacetylation (e.g., the signal is inversely proportional to the activity of the sirtuin protein). Results are read on a microplate fluorescence polarization reader (Molecular Devices Spectramax MD) with appropriate excitation and emission filters.
The fluorescence polarization assays may be conducted as follows: 0.5 μM peptide substrate and 50 μM βNAD^+ is incubated with 2 nM of SIRT3 for 60 minutes at 37° C. in a reaction buffer (25 mM Tris-acetate pH8, 137 mM Na—Ac, 2.7 mM K—Ac, 1 mM Mg—Ac, 0.1% Pluronic F127, 10 mM CaCl2, 1 mM TCEP, 0.025% BSA). Test compounds are solubilized in DMSO and are added to the reaction at 11 concentrations ranging from 0.7 μM to 100 μM. The SIRT3 protein used in the assays corresponded to amino acid residues 102-399 of human SIRT3 with an N-terminal His-tag. […] Fluorescent polarization is determined at excitation (650 nm) and emissions (680 nm) wavelengths. The level of activity of the sirtuin protein in the presence of the various concentrations of test compound are then determined and may be compared to the level of activity of the sirtuin protein in the absence of the test compound, and/or the level of activity of the sirtuin proteins in the negative control (e.g., level of inhibition) and positive control (e.g., level of activation) described below. […]

SIRT1 = molecular target: T2, SIRT1 (Homo sapiens, UniProt Q96EB6); assay: SIRT1 fluorescence polarization or mass spectrometry based assay (format not given); type: biochemical; settings: inhibition of SIRT1 (Table 5)
T2 sequence (Q96EB6 1-747): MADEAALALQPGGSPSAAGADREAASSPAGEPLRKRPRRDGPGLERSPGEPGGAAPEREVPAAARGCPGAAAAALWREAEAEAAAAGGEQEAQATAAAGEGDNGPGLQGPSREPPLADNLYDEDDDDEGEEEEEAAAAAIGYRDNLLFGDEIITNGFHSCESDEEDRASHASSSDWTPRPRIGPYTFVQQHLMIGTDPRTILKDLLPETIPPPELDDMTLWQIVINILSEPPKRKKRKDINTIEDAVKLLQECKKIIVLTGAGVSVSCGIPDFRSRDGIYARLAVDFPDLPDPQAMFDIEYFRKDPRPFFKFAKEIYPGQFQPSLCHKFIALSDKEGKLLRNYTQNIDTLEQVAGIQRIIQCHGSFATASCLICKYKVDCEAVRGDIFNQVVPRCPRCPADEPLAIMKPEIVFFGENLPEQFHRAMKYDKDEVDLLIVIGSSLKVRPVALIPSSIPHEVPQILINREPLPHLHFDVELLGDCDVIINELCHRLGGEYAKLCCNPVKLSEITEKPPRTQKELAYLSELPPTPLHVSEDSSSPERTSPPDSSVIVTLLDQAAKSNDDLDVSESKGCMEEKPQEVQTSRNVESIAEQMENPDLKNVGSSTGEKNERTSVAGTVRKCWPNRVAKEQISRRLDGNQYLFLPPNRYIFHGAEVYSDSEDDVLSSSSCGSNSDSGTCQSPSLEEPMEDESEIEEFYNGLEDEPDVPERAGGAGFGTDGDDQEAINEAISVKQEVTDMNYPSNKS

SMILES | IC50 (human SIRT3) [µM] | IC50 (SIRT1) [µM]
COc1ccc(C(=O)Nc2cccc(/C=C/C(=O)N3CCCNCC3)c2)cc1OC [Compound 18] | 51 to 100 | 
COc1ccccc1C(=O)Nc1cccc(/C=C/C(=O)N2CCCNCC2)c1 [Compound 15] | 51 to 100 | 101 to 150
N#Cc1cccc(C(=O)Nc2ccc(-c3cc(C(N)=O)co3)cc2)c1 [Compound 16] | 101 to 150 | 
O=C(Nc1cccc(/C=C/C(=O)N2CCCNCC2)c1)c1ccc(F)c(C(F)(F)F)c1 [Compound 17] | 51 to 100 | 
